# According to patent publication US9283222B2 (priority 2006, dated 2016):
# Biological target: Recombinant Human Poly(ADP-Ribose) Polymerase (PARP), PARP-1 (Homo sapiens (Human), UniProt P09874)
# Conditions: read-out: PARP-1 (Ki); Table 1; text calls the values EC50s
# Chain of Recombinant Human Poly(ADP-Ribose) Polymerase (PARP), PARP-1 (P09874 whole entry): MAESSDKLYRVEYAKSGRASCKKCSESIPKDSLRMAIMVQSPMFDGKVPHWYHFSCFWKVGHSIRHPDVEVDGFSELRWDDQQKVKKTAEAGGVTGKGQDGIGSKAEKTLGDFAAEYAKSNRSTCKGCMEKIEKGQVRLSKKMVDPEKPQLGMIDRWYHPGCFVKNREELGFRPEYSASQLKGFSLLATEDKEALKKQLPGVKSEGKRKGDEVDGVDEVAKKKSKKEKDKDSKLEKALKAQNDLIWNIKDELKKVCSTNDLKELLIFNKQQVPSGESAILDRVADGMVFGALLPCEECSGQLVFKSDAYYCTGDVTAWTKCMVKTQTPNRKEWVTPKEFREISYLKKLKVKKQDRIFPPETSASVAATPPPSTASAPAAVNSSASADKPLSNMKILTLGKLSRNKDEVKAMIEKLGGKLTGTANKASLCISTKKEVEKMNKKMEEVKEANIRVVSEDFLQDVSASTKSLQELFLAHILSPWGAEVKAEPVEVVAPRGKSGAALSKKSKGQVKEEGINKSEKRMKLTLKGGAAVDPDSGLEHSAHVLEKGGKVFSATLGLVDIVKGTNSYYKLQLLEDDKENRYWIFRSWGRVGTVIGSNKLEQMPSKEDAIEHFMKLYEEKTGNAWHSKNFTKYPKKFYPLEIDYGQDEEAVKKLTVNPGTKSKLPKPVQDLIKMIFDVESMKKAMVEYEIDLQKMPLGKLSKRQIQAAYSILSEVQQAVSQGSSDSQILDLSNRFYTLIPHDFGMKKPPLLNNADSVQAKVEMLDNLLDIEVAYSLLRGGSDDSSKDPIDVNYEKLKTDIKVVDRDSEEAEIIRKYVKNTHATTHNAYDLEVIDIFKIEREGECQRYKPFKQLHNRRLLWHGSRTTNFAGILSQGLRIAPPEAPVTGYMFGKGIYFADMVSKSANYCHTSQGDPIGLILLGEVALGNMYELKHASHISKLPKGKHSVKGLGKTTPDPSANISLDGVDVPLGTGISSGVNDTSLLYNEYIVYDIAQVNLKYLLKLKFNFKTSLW
row,Structure (SMILES),Ki
1,"O=C(c1cc(Cc2n[nH]c(=O)c3c2CCCC3)ccc1F)N1CCN(c2cnccn2)CC1 [Example 496, 4-{4-fluoro-3-[(4-pyrazin-2-ylpiperazin-1-yl)carbonyl]benzyl}-5,6,7,8-tetrahydrophthalazin-1(2H)-one]",0.8 nM
2,"CC(Cc1n[nH]c(=O)c2c1CCCC2)c1ccc(F)c(-c2cccc(C(=O)N3CCCC3)c2)c1 (stereo not shown) [Example 276, 4-(2-(6-fluoro-3′-(pyrrolidin-1-ylcarbonyl)-1,1′-biphenyl-3-yl)propyl)-5,6,7,8-tetrahydrophthalazin-1(2H)-one]",943 nM
3,"CCCOc1ccc(NC(=O)c2cccc(Cc3n[nH]c(=O)c4c3CCCC4)c2)cc1 [Example 355, 3-((4-oxo-3,4,5,6,7,8-hexahydrophthalazin-1-yl)methyl)-N-(4-propoxyphenyl)benzamide]",92 nM
4,"O=C(O)c1cc(Cc2n[nH]c(=O)c3c2NCCC3)ccc1F [Example 468, 2-fluoro-5-((5-oxo-1,2,3,4,5,6-hexahydropyrido(2,3-d)pyridazin-8-yl)methyl)benzoic acid]",249 nM
5,"O=C(c1cc(Cc2n[nH]c(=O)c3c2NCCC3)ccc1F)N1CCN(c2cncnc2)CC1 [Example 696, 8-{4-fluoro-3-[(4-pyrimidin-5-ylpiperazin-1-yl)carbonyl]benzyl}-2,3,4,6-tetrahydropyrido[2,3-d]pyridazin-5(1H)-one]",2.5 nM
6,"CC(C)C(=O)N1CCN(C(=O)c2cc(Cc3n[nH]c(=O)c4c3CCCC4)ccc2F)CC1 [Example 579, 4-{4-fluoro-3-[(4-isobutyrylpiperazin-1-yl)carbonyl]benzyl}-5,6,7,8-tetrahydrophthalazin-1(2H)-one]",1 nM
7,"O=C(NCCc1cccc(Cl)c1)c1cccc(Cc2n[nH]c(=O)c3c2CCCC3)c1 [Example 389, N-(2-(3-chlorophenyl)ethyl)-3-((4-oxo-3,4,5,6,7,8-hexahydrophthalazin-1-yl)methyl)benzamide]",48 nM
8,"CN1CCN(CCNC(=O)c2cccc(Cc3n[nH]c(=O)c4c3CCCC4)c2)CC1 [Example 59, N-(2-(4-methylpiperazin-1-yl)ethyl)-3-((4-oxo-3,4,5,6,7,8-hexahydrophthalazin-1-yl)methyl)benzamide]",24 nM
9,"COc1cccc(CCC(=O)Nc2cccc(Cc3n[nH]c(=O)c4c3CCCC4)c2)c1 [Example 161, 3-(3-methoxyphenyl)-N-(3-((4-oxo-3,4,5,6,7,8-hexahydrophthalazin-1-yl)methyl)phenyl)propanamide]",64 nM
10,"O=C(c1cc(Cc2n[nH]c(=O)c3c2CCCC3)ccc1F)N1CCN(c2ccccc2F)CC1 [Example 523, 4-(4-fluoro-3-{[4-(2-fluorophenyl)piperazin-1-yl]carbonyl}benzyl)-5,6,7,8-tetrahydrophthalazin-1(2H)-one]",13 nM
11,"CN1CCCN(C(=O)c2cccc(Cc3n[nH]c(=O)c4c3CCCC4)c2)CC1 [Example 447, 4-(3-((4-methyl-1,4-diazepan-1-yl)carbonyl)benzyl)-5,6,7,8-tetrahydrophthalazin-1(2H)-one]",10 nM
12,"Cc1ccc(C(=O)c2ccccc2C(=O)Nc2cccc(Cc3n[nH]c(=O)c4c3CCCC4)c2)cc1 [Example 244, 2-(4-methylbenzoyl)-N-(3-((4-oxo-3,4,5,6,7,8-hexahydrophthalazin-1-yl)methyl)phenyl)benzamide]",2340 nM

# Next, values leading:
row,Ki,Structure (SMILES)
1,66 nM,"O=C(Nc1ccc2c(c1)OCCO2)c1cccc(Cc2n[nH]c(=O)c3c2CCCC3)c1 [Example 358, N-2,3-dihydro-1,4-benzodioxin-6-yl-3-((4-oxo-3,4,5,6,7,8-hexahydrophthalazin-1-yl)methyl)benzamide]"
2,309 nM,"Cc1ccc(Cc2n[nH]c(=O)c3c2CCCC3)cc1N [Example 281, 4-(3-amino-4-methylbenzyl)-5,6,7,8-tetrahydrophthalazin-1(2H)-one]"
3,1 nM,"O=C(NC1CCN(C(=O)c2cc(Cc3n[nH]c(=O)c4c3NCCC4)ccc2F)CC1)c1ccncc1 [Example 748, N-(1-{2-fluoro-5-[(5-oxo-1,2,3,4,5,6-hexahydropyrido[2,3-d]pyridazin-8-yl)methyl]benzoyl}piperidin-4-yl)isonicotinamide]"
4,1050 nM,"O=C(c1cccc(-c2cc(CCc3n[nH]c(=O)c4c3CCCC4)ccc2F)c1)N1CCCC1 [Example 269, 4-(2-(6-fluoro-3′-(pyrrolidin-1-ylcarbonyl)-1,1′-biphenyl-3-yl)ethyl)-5,6,7,8-tetrahydrophthalazin-1(2H)-one]"
5,158 nM,"CC(C)(C)c1ccc(C(=O)Nc2cccc(Cc3n[nH]c(=O)c4c3CCCC4)c2)cc1 [Example 233, 4-tert-butyl-N-(3-((4-oxo-3,4,5,6,7,8-hexahydrophthalazin-1-yl)methyl)phenyl)benzamide]"
6,1260 nM,"CNC(=O)c1ncccc1Cc1n[nH]c(=O)c2c1CCCC2 [Example 95, N-methyl-3-((4-oxo-3,4,5,6,7,8-hexahydrophthalazin-1-yl)methyl)pyridine-2-carboxamide]"
7,48 nM,"CCOc1ccc(CCNC(=O)c2cccc(Cc3n[nH]c(=O)c4c3CCCC4)c2)cc1OC [Example 401, N-(2-(4-ethoxy-3-methoxyphenyl)ethyl)-3-((4-oxo-3,4,5,6,7,8-hexahydrophthalazin-1-yl)methyl)benzamide]"
8,126 nM,"O=C(NC1CC1)c1cccc(Cc2n[nH]c(=O)c3c2CCCC3)n1 [Example 83, N-cyclopropyl-6-((4-oxo-3,4,5,6,7,8-hexahydrophthalazin-1-yl)methyl)pyridine-2-carboxamide]"
9,840 nM,"CNC(=O)c1ccc(Cc2n[nH]c(=O)c3c2CCCC3)cn1 [Example 93, N-methyl-5-((4-oxo-3,4,5,6,7,8-hexahydrophthalazin-1-yl)methyl)pyridine-2-carboxamide]"
10,1.2 nM,CC(C)n1nnc2cc(C(=O)N3CCN(C(=O)c4cc(Cc5n[nH]c(=O)c6c5NCCC6)ccc4F)CC3)ccc21 [Example 643]
11,47 nM,"CNC(=O)c1cccc(Cc2n[nH]c(=O)c3c2CCCC3)n1 [Example 80, N-methyl-6-((4-oxo-3,4,5,6,7,8-hexahydrophthalazin-1-yl)methyl)pyridine-2-carboxamide]"
12,1.8 nM,"CCN(CCNC(=O)c1ccccc1)C(=O)c1cc(Cc2n[nH]c(=O)c3c2CCCC3)ccc1F [Example 742, N-[2-(benzoylamino)ethyl]-N-ethyl-2-fluoro-5-[(4-oxo-3,4,5,6,7,8-hexahydrophthalazin-1-yl)methyl]benzamide]"
13,776 nM,"N#Cc1ccc(S(=O)(=O)Nc2cccc(Cc3n[nH]c(=O)c4c3CCCC4)c2)cc1 [Example 121, 4-cyano-N-(3-((4-oxo-3,4,5,6,7,8-hexahydrophthalazin-1-yl)methyl)phenyl)benzenesulfonamide]"
14,335 nM,"O=c1[nH]nc(CCc2ccccc2)c2c1CCCC2 [Example 255, 4-(2-phenylethyl)-5,6,7,8-tetrahydrophthalazin-1(2H)-one]"
15,20 nM,"CC1(C)C(=O)NCCN1C(=O)c1cc(Cc2n[nH]c(=O)c3c2NCCC3)ccc1F [Example 667, 8-{3-[(2,2-dimethyl-3-oxopiperazin-1-yl)carbonyl]-4-fluorobenzyl}-2,3,4,6-tetrahydropyrido[2,3-d]pyridazin-5(1H)-one]"
16,1.5 nM,"O=C(c1cccnc1)N1CCN(C(=O)c2cc(Cc3n[nH]c(=O)c4c3NCCC4)ccc2F)CC1 [Example 661, 8-(4-fluoro-3-{[4-(pyridin-3-ylcarbonyl)piperazin-1-yl]carbonyl}benzyl)-2,3,4,6-tetrahydropyrido[2,3-d]pyridazin-5(1H)-one]"
